Test results reported in patent publication US20240207414A1, “DISULFIDE-BASED PRODRUG COMPOUND” (Ludwig-Maximilians-Universitat Munchen, priority 2021, published 2024).

What was measured:
Assay type in all cases: biochemical
[1] = target: thioredoxin reductase 2 (TrxR2) (Homo sapiens, UniProt Q9NNW7); test: Enzymatic activation assay: NADPH/TrxR2 without Trx; details: NADPH/TrxR2, no Trx added, 37° C., 6 h
From the text: (§1) This assay (see FIG. 2) examined the resistance of disulfide-based reduction-triggered compounds to the major cellular enzymatic systems that maintain redox homeostasis and are capable of reducing disulfides, evaluated in a cell-free assay, to see if these compounds can be useful for selective enzyme-triggered release.
(§2) Assay conditions: A black 96-well plate with black bottom was charged with solutions of fluorophore-releasing reduction-triggered probes that are compounds of the invention (P1, P2) or that are not compounds of the invention and reveal the performance of prior art systems (X19) (50 μL; 40 μM in aq. TE buffer (pH 7.4) and 4 μL DMSO). […]
(§3) Data Representation: (F(t)-F^NADPH(t)) is the fluorescence intensity of the test solution at time t, from which is subtracted a background fluorescence level also at time t from a solution with NADPH (which itself is fluorescent, and is present in 10-fold higher concentration than the probe) and with the same protein mixture but without the probe. F^max(t) is the maximum possible fluorescence intensity value at time t, determined by incubation with TCEP (100 μM)) similarly as for the chemical reductant assay. (F(t)−F^NADPH(t))/F^max(t) thus gives the timecourse of fluorescence signal, as a fraction of the maximum possible fluorescence signal. […]

thioredoxin 2 (Trx2) = target: T1, thioredoxin 2 (Trx2) (Homo sapiens, UniProt Q99757); test: Enzymatic activation assay: NADPH/TrxR/Trx2 system; details: NADPH/TrxR plus Trx2, 37° C., 6 h
T1 sequence (Q99757 60-166): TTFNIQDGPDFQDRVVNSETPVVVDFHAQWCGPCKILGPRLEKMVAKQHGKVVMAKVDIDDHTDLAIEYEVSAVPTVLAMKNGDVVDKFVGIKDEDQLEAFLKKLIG
From the text: as §1, §2, §3

[2] = target: T2, glutathione reductase (GR) (Homo sapiens, UniProt P00390); test: Enzymatic activation assay: GR; details: NADPH/GR
T2 sequence (P00390 44-522): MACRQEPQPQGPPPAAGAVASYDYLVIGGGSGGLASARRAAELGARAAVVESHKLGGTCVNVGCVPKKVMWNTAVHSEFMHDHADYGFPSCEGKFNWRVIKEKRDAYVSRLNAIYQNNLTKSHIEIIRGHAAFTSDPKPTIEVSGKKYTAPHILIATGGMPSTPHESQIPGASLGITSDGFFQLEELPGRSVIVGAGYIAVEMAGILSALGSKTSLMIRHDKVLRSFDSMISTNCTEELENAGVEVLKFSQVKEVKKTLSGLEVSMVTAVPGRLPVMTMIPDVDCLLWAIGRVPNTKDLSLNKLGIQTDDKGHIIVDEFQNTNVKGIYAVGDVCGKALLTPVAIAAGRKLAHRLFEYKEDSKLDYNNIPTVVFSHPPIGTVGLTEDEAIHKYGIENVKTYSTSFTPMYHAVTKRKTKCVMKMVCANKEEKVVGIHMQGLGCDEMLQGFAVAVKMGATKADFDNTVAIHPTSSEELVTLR
From the text: as §1, §2, §3

Sequence of thioredoxin reductase 2 (TrxR2) (Q9NNW7 37-524): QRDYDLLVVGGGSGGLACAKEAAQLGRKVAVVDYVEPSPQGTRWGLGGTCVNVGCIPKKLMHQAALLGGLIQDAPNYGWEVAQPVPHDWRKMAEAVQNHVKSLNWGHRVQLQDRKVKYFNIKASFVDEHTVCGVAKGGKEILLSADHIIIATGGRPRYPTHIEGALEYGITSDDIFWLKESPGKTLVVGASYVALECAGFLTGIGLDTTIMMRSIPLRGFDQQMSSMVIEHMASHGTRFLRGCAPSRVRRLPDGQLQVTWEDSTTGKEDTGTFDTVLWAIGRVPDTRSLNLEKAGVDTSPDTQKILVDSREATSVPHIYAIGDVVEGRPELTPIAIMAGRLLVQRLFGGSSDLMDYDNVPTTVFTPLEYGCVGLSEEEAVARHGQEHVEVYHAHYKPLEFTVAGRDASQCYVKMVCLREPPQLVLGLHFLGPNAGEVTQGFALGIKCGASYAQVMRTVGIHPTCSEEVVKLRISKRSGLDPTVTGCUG

Row | Structure (SMILES) | cargo release / processing by TrxR2 [1] | cargo release / processing by TrxR plus Trx2 (thioredoxin 2 (Trx2)) | cargo release / processing by oxidoreductase GR [2]
1 | O=C(Oc1ccc(Cl)cc1-c1nc2ccc(Cl)cc2c(=O)[nH]1)N1CCC[C@@H]2CSSC[C@@H]21 (racemic) [Compound P2, 4-chloro-2-(6-chloro-4-oxo-3,4-dihydroquinazolin-2-yl)phenyl-(cis)-hexahydro-[1,2]dithiino[4,5-b]pyridine-1(2H)-carboxylate] | not processed | processed when additional high levels of Trx1 and Trx2 are added | resist
2 | O=C(Oc1ccc(Cl)cc1-c1nc2ccc(Cl)cc2c(=O)[nH]1)N1CCC[C@@H]2CSSC[C@H]21 (racemic) [Compound P1, 4-chloro-2-(6-chloro-4-oxo-3,4-dihydroquinazolin-2-yl)phenyl-(trans)-hexahydro-[1,2]dithiino[4,5-b]pyridine-1(2H)-carboxylate] | not processed | processed when additional high levels of Trx1 and Trx2 are added | resist
